Measurements reported in ChEMBL document CHEMBL4813981, “Synthesis and in vitro antibacterial activity of new aminothiazole-oximepiperidone cephalosporins” (2021).
Values after ≈ are worked out from the molar mass of the structure shown.

Columns and labels:
Pseudomonas aeruginosa [1] = test: Ratio of MBC to MIC for carbapenem-sensitive Pseudomonas aeruginosa 17-26 assessed as reduction in bacterial growth; format: functional
Escherichia coli [2] = test: Antibacterial activity against ESBLs positive Carbapenem-sensitive Escherichia coli 17-21 assessed as reduction in bacterial growth in the presence of Avibactam; format: functional
Escherichia coli [3] = test: Ratio of MBC to MIC for ESBLs negative Carbapenem-sensitive Escherichia coli 17-7 assessed as reduction in bacterial growth; format: functional
Escherichia coli [4] = test: Ratio of MBC to MIC for ESBLs positive carbapenem-negative Escherichia coli 17-3 assessed as reduction in bacterial growth in the presence of Avibactam; format: functional
Klebsiella pneumoniae [5] = test: Antibacterial activity against ESBLs positive Carbapenem-sensitive Klebsiella pneumoniae 17-5 assessed as reduction in bacterial growth in the presence of Avibactam; format: functional
Klebsiella aerogenes [6] = test: Bactericidal activity against Enterobacter aerogenes 17-4 assessed as reduction in bacterial growth; format: functional
Enterobacter cloacae [7] = test: Antibacterial activity against Enterobacter cloacae 17-3 assessed as reduction in bacterial growth in the presence of Avibactam; format: functional
Klebsiella aerogenes [8] = test: Antibacterial activity against Enterobacter aerogenes 15-4 assessed as reduction in bacterial growth in the presence of Avibactam; format: functional
Escherichia coli [9] = test: Ratio of MBC to MIC for ESBLs negative carbapenem-negative Escherichia coli 17-9 assessed as reduction in bacterial growth in the presence of Avibactam; format: functional
Pseudomonas aeruginosa [10] = test: Ratio of MBC to MIC for carbapenem-sensitive Pseudomonas aeruginosa 17-10 assessed as reduction in bacterial growth; format: functional
Enterobacter cloacae [11] = test: Ratio of MBC to MIC for Enterobacter cloacae 17-3 assessed as reduction in bacterial growth; format: functional
Enterobacter cloacae [12] = test: Antibacterial activity against Enterobacter cloacae 17-1 assessed as reduction in bacterial growth in the presence of Avibactam; format: functional
Klebsiella pneumoniae [13] = test: Ratio of MBC to MIC for ESBLs negative Carbapenem-sensitive Klebsiella pneumoniae 17-16 assessed as reduction in bacterial growth; format: functional
Pseudomonas aeruginosa [14] = test: Ratio of MBC to MIC for carbapenem-sensitive Pseudomonas aeruginosa 17-7 assessed as reduction in bacterial growth; format: functional
Escherichia coli [15] = test: Ratio of MBC to MIC for Escherichia coli NCTC 13353 assessed as reduction in bacterial growth in the presence of Avibactam; format: functional
Escherichia coli [16] = test: Ratio of MBC to MIC for ESBLs negative Carbapenem-sensitive Escherichia coli 17-9 assessed as reduction in bacterial growth; format: functional
Enterobacter cloacae [17] = test: Ratio of MBC to MIC for Enterobacter cloacae 17-3 assessed as reduction in bacterial growth in the presence of Avibactam; format: functional
Enterobacter cloacae [18] = test: Ratio of MBC to MIC for Enterobacter cloacae 17-9 assessed as reduction in bacterial growth; format: functional
Klebsiella aerogenes [19] = test: Ratio of MBC to MIC for Enterobacter aerogenes 17-1 assessed as reduction in bacterial growth; format: functional
Klebsiella pneumoniae [20] = test: Bactericidal activity against ESBLs negative Carbapenem-sensitive Klebsiella pneumoniae 17-17 assessed as reduction in bacterial growth; format: functional
Escherichia coli [21] = test: Antibacterial activity against ESBLs positive Carbapenem-sensitive Escherichia coli 17-2 assessed as reduction in bacterial growth in the presence of Avibactam; format: functional
Klebsiella aerogenes [22] = test: Antibacterial activity against Enterobacter aerogenes 15-6 assessed as reduction in bacterial growth in the presence of Avibactam; format: functional
Acinetobacter baumannii [23] = test: Ratio of MBC to MIC for Carbapenem- resistant Acinetobacter baumannii 17-11 assessed as reduction in bacterial growth in the presence of Avibactam; format: functional
Enterobacter cloacae [24] = test: Ratio of MBC to MIC for Enterobacter cloacae 17-2 assessed as reduction in bacterial growth in the presence of Avibactam; format: functional
Enterobacter cloacae [25] = test: Ratio of MBC to MIC for Enterobacter cloacae 17-9 assessed as reduction in bacterial growth in the presence of Avibactam; format: functional
Escherichia coli [26] = test: Ratio of MBC to MIC for ESBLs negative Carbapenem-sensitive Escherichia coli 17-20 assessed as reduction in bacterial growth; format: functional
Klebsiella aerogenes [27] = test: Ratio of MBC to MIC for Enterobacter aerogenes 15-3 assessed as reduction in bacterial growth in the presence of Avibactam; format: functional
Escherichia coli [28] = test: Antibacterial activity against ESBLs positive Carbapenem-sensitive Escherichia coli 17-3 assessed as reduction in bacterial growth in the presence of Avibactam; format: functional
Klebsiella aerogenes [29] = test: Ratio of MBC to MIC for Enterobacter aerogenes 17-4 assessed as reduction in bacterial growth; format: functional
Escherichia coli [30] = test: Antibacterial activity against ESBLs negative Carbapenem-sensitive Escherichia coli 17-19 assessed as reduction in bacterial growth in the presence of Avibactam; format: functional
Klebsiella pneumoniae [31] = test: Ratio of MBC to MIC for Klebsiella pneumoniae ATCC BAA-1705 assessed as reduction in bacterial growth in the presence of Avibactam; format: functional
Klebsiella pneumoniae [32] = test: Antibacterial activity against ESBLs positive Carbapenem-sensitive Klebsiella pneumoniae 17-2 assessed as reduction in bacterial growth in the presence of Avibactam; format: functional
Escherichia coli [33] = test: Antibacterial activity against ESBLs positive Carbapenem-sensitive Escherichia coli 17-12 assessed as reduction in bacterial growth in the presence of Avibactam; format: functional
Pseudomonas aeruginosa [34] = test: Ratio of MBC to MIC for Pseudomonas aeruginosa ATCC 27853 assessed as reduction in bacterial growth in the presence of Avibactam; format: functional
Pseudomonas aeruginosa [35] = test: Ratio of MBC to MIC for carbapenem-sensitive Pseudomonas aeruginosa 17-7 assessed as reduction in bacterial growth in the presence of Avibactam; format: functional
Klebsiella pneumoniae [36] = test: Ratio of MBC to MIC for ESBLs negative Carbapenem-sensitive Klebsiella pneumoniae 17-17 assessed as reduction in bacterial growth; format: functional
Escherichia coli [37] = test: Ratio of MBC to MIC for ESBLs negative carbapenem-negative Escherichia coli 17-7 assessed as reduction in bacterial growth in the presence of Avibactam; format: functional
Klebsiella aerogenes [38] = test: Ratio of MBC to MIC for Enterobacter aerogenes 17-3 assessed as reduction in bacterial growth; format: functional
Pseudomonas aeruginosa [39] = test: Antibacterial activity against Carbapenem- sensitive Pseudomonas aeruginosa 17-30 assessed as reduction in bacterial growth in the presence of Avibactam; format: functional
Klebsiella pneumoniae [40] = test: Ratio of MBC to MIC for ESBLs negative Carbapenem-sensitive Klebsiella pneumoniae 17-17 assessed as reduction in bacterial growth in the presence of Avibactam; format: functional
Klebsiella aerogenes [41] = test: Antibacterial activity against Enterobacter aerogenes 17-3 assessed as reduction in bacterial growth
Klebsiella pneumoniae [42] = test: Antibacterial activity against ESBLs negative Carbapenem-sensitive Klebsiella pneumoniae 17-19 assessed as reduction in bacterial growth in the presence of Avibactam; format: functional
Acinetobacter baumannii [43] = test: Bactericidal activity against Carbapenem- resistant Acinetobacter baumannii 17-3 assessed as reduction in bacterial growth; format: functional
Klebsiella aerogenes [44] = test: Antibacterial activity against Enterobacter aerogenes 17-4 assessed as reduction in bacterial growth
Klebsiella aerogenes [45] = test: Bactericidal activity against Enterobacter aerogenes 17-3 assessed as reduction in bacterial growth; format: functional
Enterobacter cloacae [46] = test: Bactericidal activity against Enterobacter cloacae 17-9 assessed as reduction in bacterial growth; format: functional

Nc1nc(/C(=N/OCc2cc(=O)c(O)cn2O)C(=O)N[C@@H]2C(=O)N3C(C(=O)O)=CCS[C@H]23)cs1
Ratio (Pseudomonas aeruginosa [1]): >8 | MIC (Escherichia coli [2]): 0.5 µg/mL | Ratio (Escherichia coli [3]): 2 | Ratio (Escherichia coli [4]): 2 | MIC (Klebsiella pneumoniae [5]): 1 µg/mL | MBC (Klebsiella aerogenes [6]): 16 µg/mL (≈ 31.5 µM) | MIC (Enterobacter cloacae [7]): 2 µg/mL | MIC (Klebsiella aerogenes [8]): 0.5 µg/mL | Ratio (Escherichia coli [9]): 4 | Ratio (Pseudomonas aeruginosa [10]): 4 | Ratio (Enterobacter cloacae [11]): 1 | MIC (Enterobacter cloacae [12]): 1 µg/mL | Ratio (Klebsiella pneumoniae [13]): 1 | Ratio (Pseudomonas aeruginosa [14]): 4 | Ratio (Escherichia coli [15]): 1 | Ratio (Escherichia coli [16]): 4 | Ratio (Enterobacter cloacae [17]): 4 | Ratio (Enterobacter cloacae [18]): 1 | Ratio (Klebsiella aerogenes [19]): 2 | MBC (Klebsiella pneumoniae [20]): 0.25 µg/mL (≈ 0.492 µM) | MIC (Escherichia coli [21]): 0.25 µg/mL | MIC (Klebsiella aerogenes [22]): 0.5 µg/mL | Ratio (Acinetobacter baumannii [23]): >8 | Ratio (Enterobacter cloacae [24]): 8 | Ratio (Enterobacter cloacae [25]): 1 | Ratio (Escherichia coli [26]): >8 | Ratio (Klebsiella aerogenes [27]): 1 | MIC (Escherichia coli [28]): 0.125 µg/mL | Ratio (Klebsiella aerogenes [29]): 2 | MIC (Escherichia coli [30]): 0.5 µg/mL | Ratio (Klebsiella pneumoniae [31]): 1 | MIC (Klebsiella pneumoniae [32]): 0.125 µg/mL | MIC (Escherichia coli [33]): 0.25 µg/mL | Ratio (Pseudomonas aeruginosa [34]): 4 | Ratio (Pseudomonas aeruginosa [35]): 1 | Ratio (Klebsiella pneumoniae [36]): 2 | Ratio (Escherichia coli [37]): 2 | Ratio (Klebsiella aerogenes [38]): 1 | MIC (Pseudomonas aeruginosa [39]): 0.25 µg/mL | Ratio (Klebsiella pneumoniae [40]): 8 | MIC (Klebsiella aerogenes [41]): 2 µg/mL (≈ 3.93 µM) | MIC (Klebsiella pneumoniae [42]): ≤ 0.03 µg/mL

CC(C)(O/N=C(\C(=O)N[C@@H]1C(=O)N2C(C(=O)[O-])=C(C[n+]3ccccc3)CS[C@H]12)c1csc(N)n1)C(=O)O [CEFTAZIDIME]
MBC (Acinetobacter baumannii [43]): 64 µg/mL (≈ 117 µM) | MIC (Klebsiella aerogenes [44]): 8 µg/mL (≈ 14.6 µM) | MBC (Klebsiella aerogenes [45]): 1 µg/mL (≈ 1.83 µM) | MBC (Enterobacter cloacae [46]): > 4 µg/mL
